Consider two molecules from patent publication EP3749673B1, “CRYSTALLINE FORM OF BICTEGRAVIR SODIUM” (Sandoz AG, priority 2018, dated 2019).

Holding throughout (type): physicochemical
Data set [1] in a line: Initial dissolution behaviour (dissolution rate), about 100 mg suspended in 10 ml solvent, filtrate analysed by HPLC. The following applies: 24°C, stirring time 1 minute, approx. 100mg in 10ml. On the procedure:
The initial dissolution behavior of bictegravir sodium form II was compared with bictegravir sodium form I. Approximately 100mg Bictegravir-Na (Form I or Form II) were suspended at 24°C in 10ml solvent. Two different solvents were used for the study: 0,1M aqueous HCl solution and a phosphate buffer system (pH6,8; prepared according to "Küster Thiel - Rechentafeln dür die chemische Analytik").
After a stirring time of 1 minute a sample was taken and filtered throw a syringe filter. The received clear filtrate was analyzed by HPLC to determine the Bictegravir content. The HPLC-column was a YMC-Pack Pro C18 RS (150mm x 4.6mm) operated at 0.8 ml/min. Detection was at a wavelength of 254 nm. Mobile phases were sulfamic acid in water and acetonitrile, respectively, and were used as components of the gradient.

Data set [2] in a line: Differential scanning calorimetry, resistance to temperature stress (solid-solid phase transition). The following applies: DSC, heating rate 10 K/min, 25 to 400 °C. The protocol: Bictegravir sodium Form II was investigated by DSC, which was performed on a Mettler Polymer DSC R instrument. The sample (3.77 mg) was heated in a 40 microliter aluminium pan with a pierced aluminium lid from 25 to 400 °C at a rate of 10 K/min. Nitrogen (purge rate 50 mL/min) was used as purge gas.
A general note: Differential scanning calorimetry records heat flow against a reference as temperature is scanned.

The nature of data set [3]: Storage stability (polymorphic stability determined by XRPD). The following applies: stored at 40°C/75% rh. The protocol: Thus bictegravir sodium form II is a storage stable (polymorphically stable as determined by XRPD for at least 1 month when stored at 40°C/75% rh) fast-dissolving crystalline form of bictegravir sodium with unexpected advantages over bictegravir sodium form I.

Consider `O=C(NCc1c(F)cc(F)cc1F)c1cn2c(c(O)c1=O)C(=O)N1C3CCC(C3)OC1C2` (centres unmarked) [bictegravir sodium form I, bictegravir sodium], for which the “amount dissolved after 1 minute” value in data set [1] (0.1M HCl) was 0.085 mg/mL; in data set [1] (pH6.8 phosphate buffer system), 0.059 mg/mL. Further, the “temperature at which decomposition starts” value in data set [2] (Form I formed in situ from Form II) was “about 370 °C”.
For `O=C(NCc1c(F)cc(F)cc1F)c1cn2c(c(O)c1=O)C(=O)N1C3CCC(C3)OC1C2` (centres unmarked) [bictegravir sodium form II, bictegravir sodium], the “amount dissolved after 1 minute” value in data set [1] (0.1M HCl) amounted to 0.220 mg/mL. The “amount dissolved after 1 minute” value in data set [1] (pH6.8 phosphate buffer system) was found to be 0.186 mg/mL. Besides, in data set [3], the “polymorphically stable as determined by XRPD (storage time)” value is recorded as “at least 1 month”. Further, in data set [2], the “onset temperature of exothermic peak (solid-solid phase transition from Form II to Form I)” value was “about 313 °C” and the “peak temperature of exothermic peak (solid-solid phase transition from Form II to Form I)” value was “about 320 °C”.
